In PubChem BioAssay (NCI):
Several values for one entry are separate records, joined by “and”; a condition that tells them apart may be missing. Identical values can stand only once.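 Briefly, cells in 96-well plates were exposed to five compound concentrations for 48 h, and endpoints were estimated by linear interpolation. At the GI50, growth is halved. TGI marks complete inhibition of growth.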 Where a SMILES comes first, the peptide text is derived from it. [ ]: non-standard residue; d: D form. The star is where a group is joined. ξ: configuration not given here. X16 = COC1=CC(=O)N(C(=O)C(O*)C(C)C)C1Cc1ccccc1; ξNMe2Val = CC(C)C(C(=O)*)N(C)C; NMeV = CN[CH](C(=O)O)C(C)C

Key:
Test in all cases: DTP human tumour cell line panel, 48 h
CCRF-CEM leukemia = test system: CCRF-CEM leukemia
COLO 205 colon = test system: COLO 205 colon
HCC-2998 colon = test system: HCC-2998 colon
HCT-116 colon = test system: HCT-116 colon
HL-60(TB) leukemia = test system: HL-60(TB) leukemia
UACC-62 melanoma = test system: UACC-62 melanoma
BT-549 breast = test system: BT-549 breast
DU-145 prostate = test system: DU-145 prostate
NCI/ADR-RES ovarian = test system: NCI/ADR-RES ovarian
T-47D breast = test system: T-47D breast

SMILES	TGI (CCRF-CEM leukemia)	TGI (COLO 205 colon)	TGI (HCC-2998 colon)	TGI (HCT-116 colon)	TGI (HL-60(TB) leukemia)	TGI (UACC-62 melanoma)	TGI (BT-549 breast)	TGI (DU-145 prostate)	TGI (NCI/ADR-RES ovarian)	TGI (T-47D breast)	GI50 (COLO 205 colon)	GI50 (HCC-2998 colon)	GI50 (HL-60(TB) leukemia)	GI50 (UACC-62 melanoma)	GI50 (CCRF-CEM leukemia)	GI50 (HCT-116 colon)
OCC(O)COc1ccc(Br)cc1 (stereo not given)	> 100 µM	> 100 µM	> 100 µM	> 100 µM	> 100 µM	> 100 µM										
Cc1ccc(N=Nc2c(O)c3ccccc3[nH]c2=O)c(S(=O)(=O)N(C)C)c1	> 100 µM	> 100 µM		> 100 µM	> 100 µM	> 100 µM	> 100 µM	> 100 µM	> 100 µM	> 100 µM						
N/C(CC/C(N)=N\O)=N\O			> 100 µM	> 100 µM		> 100 µM	> 100 µM	> 100 µM	> 100 µM	> 100 µM						
COC1=CC(=O)N(C(=O)C(OC(=O)C2CCCN2C(=O)C2CCCN2C(=O)C(C(C)C)N(C)C(=O)C(NC(=O)C(C(C)C)N(C)C)C(C)C)C(C)C)C1Cc1ccccc1 (stereo not given) (ξNMe2Val-V[NMeV]PP-X16; configuration not given here)	0.00744 µM	0.00838 µM and 0.0415 µM			0.00123 µM and < 0.0004 µM	> 4 µM		0.00455 µM	0.256 µM		< 0.0004 µM	< 0.0004 µM	< 0.0004 µM	< 0.0004 µM		
COC(=O)OC[C@H]1O[C@@H](n2cc(C)c(=O)[nH]c2=O)CC1OC(=O)OC (stereo not given in full)	> 100 µM	> 100 µM	> 100 µM		> 100 µM	> 100 µM	> 100 µM	> 100 µM	> 100 µM	> 100 µM						
C/C(=N\Nc1nc2cc(C)ccc2s1)c1ccccn1	> 100 µM		28.5 µM		0.699 µM		> 69.1 µM	5.65 µM	0.844 µM	> 89.7 µM						
Oc1c(Cl)c2nccnc2c2ccccc12	> 100 µM	> 100 µM	> 100 µM	> 100 µM	> 100 µM	> 100 µM										
CC12CC3c4ccccc4CN1C3(c1ccccc1)OC2=O (stereo not given)	> 100 µM	> 100 µM		> 100 µM	> 100 µM	> 100 µM	> 100 µM	> 100 µM	> 100 µM	> 100 µM						
O=[N+]([O-])/C(C(Cl)=C(Cl)Cl)=C1\Nc2ccccc2O1	38.7 µM	> 100 µM	> 100 µM	> 100 µM	48.7 µM	> 100 µM		> 100 µM		> 100 µM						
C=C1CC2CC[C@@]34C[C@@H]5O[C@@H]6C(O[C@H]7CC[C@H](CC(=O)OC8[C@@H](C)C9OC%10C[C@]%11(C[C@@H]%12O[C@@]%13(C[C@@H](C)[C@@H]%12O%11)C[C@H](C)[C@@H]%11OC%12CC(C(O)CO)OC%12C[C@@H]%11O%13)OC%10CC9O[C@H]8C[C@H]8O[C@@H](CC[C@@H]1O2)C[C@@H](C)C8=C)O[C@@H]7[C@@H]6O3)C5O4 (stereo not given in full)			0.00865 µM	0.00327 µM		> 1.48 µM			0.0304 µM		< 0.000148 µM		< 0.000148 µM	< 0.000148 µM	< 0.000148 µM	< 0.000148 µM
COC(=O)Cc1c([C@@H]2Nc3ccccc3[C@H]2CC(=O)OC)[nH]c2ccccc12	> 100 µM	34.8 µM	> 100 µM	> 100 µM		34.3 µM	75 µM	> 100 µM	> 100 µM							
CCCCCCCCCCCCNC(=O)NCC(OCC)OCC	> 10 µM	> 10 µM	> 10 µM	> 10 µM		> 10 µM	> 10 µM	> 10 µM		> 10 µM						
COc1c(C2(c3ccc(F)cc3)SCCCS2)c(=O)c1=O	> 100 µM	> 100 µM	> 100 µM	> 100 µM	> 100 µM	> 100 µM	> 100 µM	> 100 µM	> 100 µM							
O=S(=O)(O)c1cc(Cl)c(O)c2ncc(Cl)cc12	> 100 µM	> 100 µM	> 100 µM	> 100 µM		> 100 µM	> 100 µM	> 100 µM	> 100 µM	> 100 µM						
c1ccc2[nH]c(-c3nc4ccccc4o3)nc2c1	> 100 µM	> 100 µM	> 100 µM	> 100 µM	> 100 µM											
N#Cc1c(-c2ccco2)c2c(n(C3OC(CO)C(O)C(O)C3O)c1=S)CCCC2 (stereo not given)	> 100 µM	> 100 µM	> 100 µM	> 100 µM	> 100 µM	> 100 µM		> 100 µM	> 100 µM	> 100 µM						
C=C(NC(=O)C(=C)NC(=O)c1csc(C2=NC3c4csc(n4)C4NC(=O)c5csc(n5)C(C(C)(O)C(C)O)NC(=O)C5CSC(=N5)/C(=C/C)NC(=O)C(C(C)O)NC(=O)c5csc(n5)C3(CC2)NC(=O)C(C)NC(=O)C(=C)NC(=O)C(=C)NC(=O)C(C(C)C)NC2C=Cc3c(C(C)O)cc(nc3C2O)C(=O)OC4C)n1)C(N)=O (stereo not given)	6.8 µM	> 100 µM	> 58.1 µM	2.64 µM		4.15 µM	7.88 µM	> 72.4 µM	> 100 µM	25 µM						
Cc1c2c(n3c(nc4ccccc43)c1C#N)N(c1ccc(Cl)cc1)CC2	> 100 µM	> 100 µM	> 100 µM	> 100 µM	> 100 µM	> 100 µM	> 100 µM	> 100 µM	> 100 µM							
NCCC1(N)CCNCC1	> 100 µM	> 100 µM		> 100 µM	> 100 µM	> 100 µM	> 100 µM	> 100 µM	> 100 µM	> 100 µM						
COc1ccc(C2SCC(=O)N2N=C2NC(=O)CC(=O)N2)cc1 (stereo not given)	> 100 µM	> 100 µM	> 100 µM	> 100 µM		> 100 µM	> 100 µM	> 100 µM	> 100 µM	> 100 µM						
C[N+]1(C)CC=C(N2CCOCC2)CC1	> 10 µM	> 10 µM	> 10 µM	> 10 µM	> 10 µM	> 10 µM		> 10 µM	> 10 µM	> 10 µM						
Cc1ccc(OP2(=O)Oc3ccc4ccccc4c3CN2c2ccc(Cl)cc2)cc1C (stereo not given)	> 100 µM	> 100 µM	> 100 µM	> 100 µM	> 100 µM	> 100 µM			> 100 µM							
